What is called EC50 is the midpoint of the concentration-response curve. Low readings indicate higher potency in that assay, high ones lower potency in that assay.

From US10174065B2, “Antidiabetic enolic glucoside of phenylpyruvic acid” (ZADEC APS, priority 2010, dated 2019) come the findings set out here.

In this test the test system is Chang cells. The test is described as follows: 2-deoxy-[3H]-D-glucose uptake assay. The test is classed as cell-based. Particulars: Chang cell cultures, 3 hrs exposure. The method, then:
The glucose uptake of RX-1 and selected analogues after administration of test compounds to Chang cell cultures were determined in an operating protocol for the 2-deoxy-[^3H]-D-glucose. The protocol, which is described in more detail below, has been designed to test for the RX-1 (and RX-1 analogues) mediated glucose uptake. In Table the EC50 values for the uptake for RX-1 and representative analogues is shown.
Stock solutions of the RX-1 analogues supplied in cryo vials (DrugMode) was prepared by diluting the compound with […] sterile tissue culture grade water. This will yield a 5 mM stock solution. If the analogue […] an additional 50 μl methanol will be added (this will be recorded clearly on the log sheet). This will yield a 4 mM stock solution. Stock solutions will be kept on ice at all times and analogues will be stored in 20 μl aliquots at −80 C for subsequent use. Tubes that have been thawed will be clearly marked on the label.
RX-1 (10 μM) Positive Control Solution • To prepare a 10 μM RX-1 solution as positive control. Add 30 μl to 2970 μl modified DMEM media supplemented with 8 mM glucose.
RX-1 Analogue (31.6 μM) Test Solutions • To prepare a 31.6 μM RX-1 analogue test solution. Add 19 μl of the 5 mM to 2981 μl modified DMEM media supplemented with 8 mM glucose. To prepare a 31.6 μM RX-1 analogue test solution from a 4 mM stock solution, add 24 μl to 2976 μl modified DMEM media supplemented with 8 mM glucose.
Cell Seeding in 24-Well Plates • Chang cells are cultured according to procedures described in MRC cell culture SOPs: TC-B2a Thawing of cells and TC-B1a Cell line maintenance—general principles. Make sure cells are in the log phase (i.e. <70% confluence) and less than 20 passages. • Harvest cells using 0.25% (w/v) Trypsin/0.53 mM EDTA solution. • Count cells and resuspend to 30 000 cells/ml (Chang cell seeding density for 24-well plate=30 000 cells/ml) in EMEM (with pyruvate and NEAA, but without L-glutamate (Lonza, USA) containing 10% FBS (Gibco, UK) and pipette 1 ml/well cell suspension to a 24-well plate corresponding to 30 000 cells/well.
• after 3 days of cell growth, aspirate medium • wash cells once with pre-warmed DPBS at 37° C. • add 500 μl of pre-warmed 37° C. DMEM/0.1% BSA (without phenol red, glucose and pyruvate) to serum starve cells to remove residual glucose and FBS • incubate at 37° C. in humidified air and 5% CO2 for 30 min • aspirate DMEM/0.1% BSA (without phenol red, glucose and pyruvate) • Prepare test dilutions as specified in the plate layout (see below) • add 500 μl pre-warmed 37° C. of test dilution per well according to plate layout • incubate at 37° C. in humidified air and 5% CO2 for 3 hrs • remove test medium and wash cells once with DPBS (37° C.) • add 250 μl of test medium containing 0.5 μCi/ml ^3H-2-DOG to each well use (0.5 μl ^3H to 1 ml medium) • Incubate cells at 37° C. in humidified air and 5% CO2 for 15 min • Aspirate medium • To stop the reaction, wash cells twice with ice-cold DPBS • Aspirate DPBS and ensure that wells are as dry as possible • Lyse cells by adding 1 ml of 0.3N NaOH/1% SDS and incubate at 37° C. for at least 45 min • Mix cell lysate thoroughly before subsequent use in LSC and Bradford protein determination

Compound `O=C(O)/C(=C/c1ccccc1)O[C@@H]1O[C@H](CO)[C@@H](O)[C@H](O)[C@H]1O` [RX-1, 3-Phenyl-2-(3,4,5-trihydroxy-6-hydroxymethyl-tetrahydro-pyran-2-yloxy)-acrylic acid] yielded a concentration for a half-maximal effect (EC50) of 3.22 µM.
